Data as given in PubChem BioAssay (NCI).
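1) Cells in 96-well plates. 2) Compound, 48 h, 5 concentrations. 3) Linear interpolation between surrounding doses. 4) Unreached endpoint = highest concentration. TGI: concentration producing complete growth inhibition.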

Tests used:
Test in all cases: NCI-60 cell line screen, 48 h
RPMI-8226 leukemia = system: RPMI-8226 leukemia
CCRF-CEM leukemia = system: CCRF-CEM leukemia
K-562 leukemia = system: K-562 leukemia
NCI-H226 lung = system: NCI-H226 lung
OVCAR-8 ovarian = system: OVCAR-8 ovarian
SNB-78 CNS = system: SNB-78 CNS
HT29 colon = system: HT29 colon
786-0 renal = system: 786-0 renal
DMS 273 small cell lung = system: DMS 273 small cell lung
SK-OV-3 ovarian = system: SK-OV-3 ovarian
DMS 114 small cell lung = system: DMS 114 small cell lung
SK-MEL-28 melanoma = system: SK-MEL-28 melanoma
SF-268 CNS = system: SF-268 CNS
SN12C renal = system: SN12C renal
M19-MEL melanoma = system: M19-MEL melanoma
UACC-257 melanoma = system: UACC-257 melanoma
NCI-H23 lung = system: NCI-H23 lung
SR leukemia = system: SR leukemia
HCC-2998 colon = system: HCC-2998 colon
MOLT-4 leukemia = system: MOLT-4 leukemia
SF-295 CNS = system: SF-295 CNS
MALME-3M melanoma = system: MALME-3M melanoma
LOX IMVI melanoma = system: LOX IMVI melanoma
COLO 205 colon = system: COLO 205 colon
TK-10 renal = system: TK-10 renal
NCI-H522 lung = system: NCI-H522 lung
NCI-H460 lung = system: NCI-H460 lung
EKVX NSCLC = system: EKVX NSCLC
KM20L2 colon = system: KM20L2 colon
OVCAR-4 ovarian = system: OVCAR-4 ovarian
OVCAR-5 ovarian = system: OVCAR-5 ovarian
A549 NSCLC = system: A549 NSCLC
SNB-19 CNS = system: SNB-19 CNS
HCT-116 colon = system: HCT-116 colon
HCT-15 colon = system: HCT-15 colon
M14 melanoma = system: M14 melanoma
SF-539 CNS = system: SF-539 CNS
OVCAR-3 ovarian = system: OVCAR-3 ovarian
SW-620 colon = system: SW-620 colon
SK-MEL-2 melanoma = system: SK-MEL-2 melanoma
U251 CNS = system: U251 CNS
HL-60(TB) leukemia = system: HL-60(TB) leukemia
KM12 colon = system: KM12 colon
IGROV1 ovarian = system: IGROV1 ovarian
HOP-62 NSCLC = system: HOP-62 NSCLC
UO-31 renal = system: UO-31 renal
ACHN renal = system: ACHN renal
CAKI-1 renal = system: CAKI-1 renal
SK-MEL-5 melanoma = system: SK-MEL-5 melanoma
A498 renal = system: A498 renal
HS 578T breast = system: HS 578T breast
MDA-MB-231 breast = system: MDA-MB-231 breast
RXF 393 renal = system: RXF 393 renal
DU-145 prostate = system: DU-145 prostate
SNB-75 CNS = system: SNB-75 CNS
NCI/ADR-RES ovarian = system: NCI/ADR-RES ovarian
UACC-62 melanoma = system: UACC-62 melanoma
BT-549 breast = system: BT-549 breast
MDA-N = system: MDA-N
MCF7 breast = system: MCF7 breast
PC-3 prostate = system: PC-3 prostate
T-47D breast = system: T-47D breast
MDA-MB-435 = system: MDA-MB-435

Measured: TGI

Cc1cnc2c(C)ccc([N+](=O)[O-])c2c1NCCCN(C)C
> 100 µM: RPMI-8226 leukemia | CCRF-CEM leukemia | K-562 leukemia | NCI-H226 lung | OVCAR-8 ovarian | SNB-78 CNS | HT29 colon | 786-0 renal | DMS 273 small cell lung | SK-OV-3 ovarian | DMS 114 small cell lung | SK-MEL-28 melanoma | SF-268 CNS | SN12C renal | M19-MEL melanoma | UACC-257 melanoma | NCI-H23 lung | SR leukemia | HCC-2998 colon | MOLT-4 leukemia | SF-295 CNS | MALME-3M melanoma | LOX IMVI melanoma | COLO 205 colon | TK-10 renal | NCI-H522 lung | NCI-H460 lung | EKVX NSCLC | KM20L2 colon | OVCAR-4 ovarian | OVCAR-5 ovarian | A549 NSCLC | SNB-19 CNS | HCT-116 colon | HCT-15 colon | M14 melanoma | SF-539 CNS | OVCAR-3 ovarian | SW-620 colon | SK-MEL-2 melanoma | U251 CNS | HL-60(TB) leukemia | KM12 colon | IGROV1 ovarian | HOP-62 NSCLC | UO-31 renal | ACHN renal | CAKI-1 renal

Nc1nc(SCc2ccccn2)c2ncn(C3CCCC3)c2n1
32.7 µM: UO-31 renal
88.5 µM: HS 578T breast
> 100 µM: RPMI-8226 leukemia | CCRF-CEM leukemia | SK-MEL-5 melanoma | K-562 leukemia | NCI-H226 lung | OVCAR-8 ovarian | HT29 colon | A498 renal | MDA-MB-231 breast | 786-0 renal | SK-OV-3 ovarian | RXF 393 renal | SK-MEL-28 melanoma | SF-268 CNS | SN12C renal | DU-145 prostate | SNB-75 CNS | UACC-257 melanoma | NCI/ADR-RES ovarian | UACC-62 melanoma | BT-549 breast | NCI-H23 lung | SR leukemia | MDA-N | HCC-2998 colon | SF-295 CNS | MALME-3M melanoma | LOX IMVI melanoma | COLO 205 colon | MCF7 breast | TK-10 renal | NCI-H522 lung | PC-3 prostate | NCI-H460 lung | EKVX NSCLC | T-47D breast | OVCAR-4 ovarian | OVCAR-5 ovarian | A549 NSCLC | SNB-19 CNS | HCT-116 colon | HCT-15 colon | M14 melanoma | OVCAR-3 ovarian | SW-620 colon | SK-MEL-2 melanoma | U251 CNS | HL-60(TB) leukemia | KM12 colon | IGROV1 ovarian | HOP-62 NSCLC | MDA-MB-435 | ACHN renal | CAKI-1 renal
